Source: ChEMBL document CHEMBL3124756, “Hepatitis C virus NS5A replication complex inhibitors. Part 6: Discovery of a novel and highly potent biarylimidazole chemotype with inhibitory activity toward genotypes 1a and 1b replicons” (J Med Chem, 2014)

Tests used:
[1] = tested on: Hepatitis C virus; experiment: Antiviral activity against Hepatitis C virus genotype 1a infected in human HuH7 cells after 5 days by ELISA; type: functional, organism-based, Hepacivirus hominis; conditions: subtype 1a, Huh-7, 120 h
[2] = Drug metabolism in assay medium assessed as parent compound level at 5 uM after 48 hrs by LC/MS analysis; type: physicochemical
[3] = tested on: Hepatitis C virus; experiment: Antiviral activity against Hepatitis C virus genotype 1b infected in human HuH7 cells after 72 hrs by FRET assay; type: functional, organism-based, Hepacivirus hominis; conditions: Huh-7, 72 h
[4] = tested on: Bovine viral diarrhea virus 1; experiment: Antiviral activity against Bovine viral diarrhea virus infected in human HuH7 cells by luciferase reporter gene assay; type: functional, organism-based; conditions: Bovine viral diarrhea virus isolates and strains, Huh-7
[5] = Cytotoxicity against human HuH7 cells infected with HCV genotype 1b after 72 hrs by Alamar blue assay; type: cell-based, Huh-7
[6] = tested on: Salmonella typhimurium; experiment: Mutagenic activity in Salmonella typhimurium TA 100 at 1 to 1000 ug/well after 48 hrs by Ames test in presence of rat liver S9 fraction; type: toxicity, organism-based; conditions: salmonella enterica subsp. enterica serovar typhimurium, s9, 48 h
[7] = tested on: Hepatitis C virus; experiment: Antiviral activity against Hepatitis C virus genotype 1b expressing […] resistant-mutant infected in human HuH7 cells after 72 hrs by FRET assay; type: functional, organism-based, Hepacivirus hominis; conditions: Huh-7, 72 h
[8] = Permeability of the compound at pH 7.4 by PAMPA; type: physicochemical; conditions: read-out: permeability
[9] = tested on: Hepatitis C virus; experiment: Antiviral activity against Hepatitis C virus genotype 3a YH infected in human HuH7 cells by FRET assay; type: functional, organism-based, Hepacivirus hominis; conditions: subtype 3a YH, Huh-7
[10] = tested on: Hepatitis C virus; experiment: Antiviral activity against Hepatitis C virus genotype 5a infected in human HuH7 cells by FRET assay; type: functional, organism-based, Hepacivirus hominis; conditions: Huh-7
[11] = Metabolic stability in rat microsomes assessed as compound remaining after 10 mins; type: ADME, microsome; conditions: liver microsomes, read-out: Stability
[12] = tested on: Hepatitis C virus; experiment: Antiviral activity against Hepatitis C virus genotype 2a J6 infected in human HuH7 cells by FRET assay; type: functional, organism-based, Hepacivirus hominis; conditions: subtype 2a J6, Huh-7
[13] = Metabolic stability in human liver microsomes assessed as compound remaining after 10 mins; type: ADME; conditions: read-out: Stability
[14] = Plasma concentration in rat at 5 mg/kg, po after 0.17 hrs; type: ADME, organism-based; parameters: dose 5 mg/kg, route oral
[15] = tested on: Hepatitis C virus; experiment: Antiviral activity against Hepatitis C virus genotype 3a infected in human HuH7 cells by FRET assay; type: functional, organism-based, Hepacivirus hominis; conditions: Huh-7
[16] = Clearance in rat at 2 mg/kg, iv; type: ADME, organism-based; parameters: dose 2 mg/kg, route intravenous; conditions: in vivo
[17] = tested on: Hepatitis C virus; experiment: Antiviral activity against Hepatitis C virus genotype 4a infected in human HuH7 cells by FRET assay; type: functional, organism-based, Hepacivirus hominis; conditions: Huh-7
[18] = tested on: Hepatitis C virus; experiment: Antiviral activity against Hepatitis C virus genotype 1a infected in human HuH7 cells after 72 hrs by FRET assay; type: functional, organism-based, Hepacivirus hominis; conditions: subtype 1a, Huh-7, 72 h
[19] = tested on: Salmonella typhimurium; experiment: Mutagenic activity in Salmonella typhimurium TA 100 at 1 to 1000 ug/well after 48 hrs by Ames test; type: toxicity, organism-based; conditions: salmonella enterica subsp. enterica serovar typhimurium

SMILES | EC50 [1] | EC50 [3] | EC50 [4] | EC50 [18] | CC50 at 72 h [5] | further results
Nc1ccc(/C=C/c2ccc(NC(=O)[C@@H]3CCCN3C(=O)Cc3ccccc3)cc2)cc1 |  |  |  |  |  | Activity [6]: Toxic
CN(C)[C@@H](C(=O)N1CCC[C@H]1c1ncc(-c2ccc(-c3ccc(-c4cnc([C@@H]5CCCN5C(=O)[C@@H](c5ccccc5)N(C)C)[nH]4)cc3)cc2)[nH]1)c1ccccc1 | 0.037 nM | 0.042 nM | 2350 nM |  | 5860 nM | EC50 [7]: 233 nM; Papp [8]: 0.7 ×10⁻⁶ cm/s; EC50 [9]: 3.8 nM; EC50 [10]: 0.032 nM; remaining at 10 min [11]: 100%; EC50 [12]: 0.032 nM; remaining at 10 min [13]: 100%; concentration at 0.17 h [14]: 20 nM; EC50 [15]: 0.015 nM; clearance [16]: 17.4 mL/min/kg; EC50 [17]: 0.013 nM
CN(C)[C@@H](C(=O)N1CCC[C@H]1C(=O)Nc1cccc(-c2cnc(-c3cccc(NC(=O)[C@@H]4CCCN4C(=O)[C@@H](c4ccccc4)N(C)C)c3)o2)c1)c1ccccc1 |  | 0.16 nM | 1160 nM | 738 nM | 4730 nM | 
CN(C)[C@@H](C(=O)N1CCC[C@H]1C(=O)Nc1ccc(-c2cnc(-c3cccc(NC(=O)[C@@H]4CCCN4C(=O)[C@@H](c4ccccc4)N(C)C)c3)o2)cc1)c1ccccc1 |  | 0.39 nM | 1220 nM | 1.6 nM | 5760 nM | 
CN(C)[C@@H](C(=O)N1CCC[C@H]1c1nc2cc(C#Cc3ccc4[nH]c([C@@H]5CCCN5C(=O)[C@@H](c5ccccc5)N(C)C)nc4c3)ccc2[nH]1)c1ccccc1 | 232 nM | 0.075 nM | 3420 nM |  | 6390 nM | 
CN(C)[C@@H](C(=O)N1CCC[C@H]1c1nc2cc(C#Cc3ccc4oc([C@@H]5CCCN5C(=O)[C@@H](c5ccccc5)N(C)C)nc4c3)ccc2o1)c1ccccc1 | > 1000 nM | > 1000 nM | 1390 nM |  | 4450 nM | 
CN(C)[C@@H](C(=O)N1CCC[C@H]1c1nc2ccc(C#Cc3ccc4nc([C@@H]5CCCN5C(=O)[C@@H](c5ccccc5)N(C)C)oc4c3)cc2o1)c1ccccc1 | > 1000 nM | < 4.6 nM | 390 nM |  | 2720 nM | EC50 [7]: > 1000 nM
CN(C)[C@@H](C(=O)N1CCC[C@H]1c1nc2cc(-c3cnc(-c4ccc5[nH]c([C@@H]6CCCN6C(=O)[C@@H](c6ccccc6)N(C)C)nc5c4)o3)ccc2[nH]1)c1ccccc1 | 973 nM | < 4.6 nM | 4960 nM |  | > 10000 nM | 
CN(C)[C@H](C(=O)N1CCC[C@H]1c1ncc(-c2ccc(-c3ccc(-c4cnc([C@@H]5CCCN5C(=O)[C@H](c5ccccc5)N(C)C)[nH]4)cc3)cc2)[nH]1)c1ccccc1 | 704 nM | 5.4 nM | 1270 nM |  | 3610 nM | 
CN(C)C(C(=O)N1CCC[C@H]1C(=O)Nc1ccc(-c2ncc(-c3ccc4[nH]c([C@@H]5CCCN5C(=O)[C@@H](c5ccccc5)N(C)C)nc4c3)o2)cc1)c1ccccc1 (single isomer, unassigned) | 251 nM | 0.077 nM | > 370 nM |  | > 10000 nM | 
O=C(Nc1ccc(/C=C/c2ccc(NC(=O)[C@@H]3CCCN3C(=O)Cc3ccccc3)cc2)cc1)[C@@H]1CCCN1C(=O)Cc1ccccc1 |  |  |  |  |  | Activity [6]: Non-toxic; Activity [19]: Non-toxic
O=C(Nc1ccc(C#Cc2ccc(NC(=O)[C@@H]3CCCN3C(=O)Cc3ccccc3)cc2)cc1)[C@@H]1CCCN1C(=O)Cc1ccccc1 |  | 5.6 nM | > 10000 nM | > 400 nM | > 10000 nM | 
CN(C)[C@@H](C(=O)N1CCC[C@H]1C(=O)Nc1ccc(-c2cnc(-c3ccc(NC(=O)[C@@H]4CCCN4C(=O)[C@@H](c4ccccc4)N(C)C)cc3)o2)cc1)c1ccccc1 |  | 677 nM | 1570 nM | 568 nM | 6010 nM | 
COC(=O)N[C@@H](C(=O)N1CCC[C@H]1c1ncc(-c2ccc(-c3ccc(-c4cnc([C@@H]5CCCN5C(=O)[C@H](NC(=O)OC)c5ccccc5)[nH]4)cc3)cc2)[nH]1)c1ccccc1 | 0.028 nM | 0.0067 nM | 1460 nM |  | > 10000 nM | EC50 [7]: 166 nM; EC50 [9]: 4.4 nM; EC50 [10]: 0.014 nM; remaining at 10 min [11]: 100%; EC50 [12]: 0.023 nM; remaining at 10 min [13]: 100%; EC50 [15]: 0.004 nM; clearance [16]: 11.1 mL/min/kg; EC50 [17]: 0.0057 nM
CN(C)[C@@H](C(=O)N1CCC[C@H]1C(=O)Nc1cccc(-c2ncc(-c3ccc4nc([C@@H]5CCCN5C(=O)[C@@H](c5ccccc5)N(C)C)[nH]c4c3)o2)c1)c1ccccc1 | 3.5 nM | 0.14 nM | 3090 nM |  | 8610 nM | EC50 [7]: > 1000 nM

More lines, main results first:

EC50 [1] | EC50 [3] | EC50 [4] | EC50 [18] | SMILES | CC50 at 72 h [5] | further results
> 1000 nM | > 1000 nM | 7980 nM |  | O=C(Cc1ccccc1)N1CCC[C@H]1c1nc2ccc(C#Cc3ccc4nc([C@@H]5CCCN5C(=O)Cc5ccccc5)oc4c3)cc2o1 | > 10000 nM | Drug metabolism [2]: Active
 | 429 nM |  |  | O=C(Nc1ccc(-c2cnc(-c3ccc(NC(=O)[C@@H]4CCCN4C(=O)Cc4ccccc4)cc3)o2)cc1)[C@@H]1CCCN1C(=O)Cc1ccccc1 |  | 
0.049 nM | 0.012 nM | 3440 nM |  | COC(=O)N[C@@H](C(=O)N1CCC[C@H]1c1ncc(-c2ccc(-c3ccc(-c4cnc([C@@H]5CCCN5C(=O)[C@@H](c5ccccc5)N(C)C)[nH]4)cc3)cc2)[nH]1)c1ccccc1 | > 9700 nM | 
 | 0.011 nM | 110 nM | 203 nM | COC(=O)N[C@@H](C(=O)N1CCC[C@H]1c1ncc(-c2ccc(-c3ccc(-c4cnc([C@@H]5CCCN5C(=O)OC(C)(C)C)[nH]4)cc3)cc2)[nH]1)c1ccccc1 | > 10000 nM | 
> 1000 nM | > 1000 nM | 412 nM |  | O=C(Cc1ccccc1)N1CCC[C@H]1c1nc2cc(C#Cc3ccc4oc([C@@H]5CCCN5C(=O)Cc5ccccc5)nc4c3)ccc2o1 | > 10000 nM | Drug metabolism [2]: Active
14.9 nM | 0.004 nM | 523 nM |  | COC(=O)N[C@@H](C(=O)N1CCC[C@H]1c1ncc(-c2ccc(-c3ccc(-c4cnc([C@@H]5CCCN5C(=O)Cc5ccccc5)[nH]4)cc3)cc2)[nH]1)c1ccccc1 | > 10000 nM | 
 | 102 nM | 2760 nM | 901 nM | CC(C)(C)OC(=O)N1CCC[C@H]1c1ncc(-c2ccc(-c3ccc(-c4cnc([C@@H]5CCCN5C(=O)OC(C)(C)C)[nH]4)cc3)cc2)[nH]1 | 9630 nM | 
 | 0.33 nM | 596 nM | 283 nM | O=C(Cc1ccccc1)N1CCC[C@H]1c1ncc(-c2ccc(-c3ccc(-c4cnc([C@@H]5CCCN5C(=O)Cc5ccccc5)[nH]4)cc3)cc2)[nH]1 | > 10000 nM | 
 | < 4.6 nM | > 10000 nM | > 100 nM | O=C(Cc1ccccc1)N1CCC[C@H]1c1nc2cc(C#Cc3ccc4nc([C@@H]5CCCN5C(=O)Cc5ccccc5)[nH]c4c3)ccc2[nH]1 | > 10000 nM | 
